Measured values published in patent publication US11458144B1, “Methods for using 5-HMF analogs with increased solubility to inhibit or reverse RBC sickling” (King Abdulaziz University, priority 2021, dated 2022).
pIC50: −log10 of the molar value. Like-named read-outs stand apart in the source and are kept apart here.

Tests used:
SS RBCs = assay: Antisickling study (RBC morphology) in SS blood under hypoxia; type: cell-based, human; details: 2 mM
Description: (§1) The effect of the MMA compounds and positive control 5-HMF on RBC sickling, Hb modification, and Hb oxygen equilibrium was studied utilizing SS blood following previous procedure.^[27]
For the antisickling study, SS blood (hematocrit 20%) were incubated under air in the absence or presence of all the MMA compounds (0.5 mM, 1 mM and 2 mM) at 37° C. for 1 h, followed by incubating the mixture under hypoxic conditions (2.5% O2) at 37° C. for 2 h. Aliquots with fixed 2% glutaraldehyde solution and under anaerobic condition were subjected to microscopic morphological analysis.^[11]
(§2) Using homozygous sickle (SS) blood from patients, the MMA compounds (MMA502, MMA503, MMA504, MMA505, and MMA509 were tested with 5-HMF as control for Hb adduct formation, effect on Hb affinity for oxygen and corresponding antisickling activities (RBC morphology study) using previously published protocols.^14,15

CYP2B6 = molecular target: T1, CYP2B6 (Homo sapiens, UniProt P20813); assay: In vitro CYP inhibition, pooled human liver microsomes
T1 sequence (P20813 1-491): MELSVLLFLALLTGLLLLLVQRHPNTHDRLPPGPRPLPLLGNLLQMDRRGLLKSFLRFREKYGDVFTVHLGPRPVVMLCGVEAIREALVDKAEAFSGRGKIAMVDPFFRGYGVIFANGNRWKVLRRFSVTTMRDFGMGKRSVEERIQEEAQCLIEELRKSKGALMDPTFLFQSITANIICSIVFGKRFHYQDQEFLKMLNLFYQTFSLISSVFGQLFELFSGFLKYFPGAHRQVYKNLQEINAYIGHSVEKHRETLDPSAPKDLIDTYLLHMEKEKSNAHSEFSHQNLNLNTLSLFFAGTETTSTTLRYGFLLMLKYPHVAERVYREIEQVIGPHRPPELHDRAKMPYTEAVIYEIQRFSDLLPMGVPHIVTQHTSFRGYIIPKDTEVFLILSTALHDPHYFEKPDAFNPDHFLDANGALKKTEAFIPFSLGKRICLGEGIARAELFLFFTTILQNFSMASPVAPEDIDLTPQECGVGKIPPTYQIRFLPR
Description: (§3) The probe substrates include tacrine (CYP1A2), amodiaquine (CYP2C8), tolbutamide (CYP2C9), mephenytoin (CYP2C19), dextromethorphan (CYP2D6), midazolam (CYP3A4), testosterone (CYP3A4), and bupropion (CYP2B6). […] The assays were performed in duplicate in 96-well plates at 37° C. for 10-60 minutes. The reaction was terminated with addition of methanol, followed by incubation at 4° C. for 10 min and centrifuged at 4° C. for 10 min.

CYP3A4 = CYP3A4 (Homo sapiens, UniProt P08684); assay: as above
Description: as §3

CYP2C9 = CYP2C9 (Homo sapiens, UniProt P11712); assay: as above
Description: as §3

CYP2D6 = CYP2D6 (Homo sapiens, UniProt P10635); assay: as above
Description: as §3

CYP2C19 = CYP2C19 (Homo sapiens, UniProt P33261); assay: as above
Description: as §3

CYP1A2 = molecular target: T2, CYP1A2 (Homo sapiens, UniProt P05177); assay: as above; type: in vitro ADME; details: substrate Tacrine
T2 construct: using pooled human liver microsomes as previously published; from tissue; host or cells: pooled human liver microsomes
T2 sequence (P05177 1-516): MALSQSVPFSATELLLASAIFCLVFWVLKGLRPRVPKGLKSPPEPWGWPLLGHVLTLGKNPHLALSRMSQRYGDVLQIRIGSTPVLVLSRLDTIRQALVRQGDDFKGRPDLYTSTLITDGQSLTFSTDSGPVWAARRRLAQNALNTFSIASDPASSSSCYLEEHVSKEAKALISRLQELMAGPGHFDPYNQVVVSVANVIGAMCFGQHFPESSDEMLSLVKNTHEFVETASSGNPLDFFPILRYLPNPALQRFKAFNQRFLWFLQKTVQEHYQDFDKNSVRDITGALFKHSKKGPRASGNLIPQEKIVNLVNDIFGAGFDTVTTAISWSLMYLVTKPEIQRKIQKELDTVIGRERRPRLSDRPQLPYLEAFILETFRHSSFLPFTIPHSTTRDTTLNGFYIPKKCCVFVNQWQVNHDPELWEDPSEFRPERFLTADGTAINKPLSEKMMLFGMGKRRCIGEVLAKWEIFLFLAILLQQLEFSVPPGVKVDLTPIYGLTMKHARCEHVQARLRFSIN
Description: as §3

CYP2C8 = molecular target: T3, CYP2C8 (Homo sapiens, UniProt P10632); assay: as above; type: in vitro ADME; details: substrate Amodiaquine
T3 construct: using pooled human liver microsomes as previously published; from tissue; host or cells: pooled human liver microsomes
T3 sequence (P10632 1-490): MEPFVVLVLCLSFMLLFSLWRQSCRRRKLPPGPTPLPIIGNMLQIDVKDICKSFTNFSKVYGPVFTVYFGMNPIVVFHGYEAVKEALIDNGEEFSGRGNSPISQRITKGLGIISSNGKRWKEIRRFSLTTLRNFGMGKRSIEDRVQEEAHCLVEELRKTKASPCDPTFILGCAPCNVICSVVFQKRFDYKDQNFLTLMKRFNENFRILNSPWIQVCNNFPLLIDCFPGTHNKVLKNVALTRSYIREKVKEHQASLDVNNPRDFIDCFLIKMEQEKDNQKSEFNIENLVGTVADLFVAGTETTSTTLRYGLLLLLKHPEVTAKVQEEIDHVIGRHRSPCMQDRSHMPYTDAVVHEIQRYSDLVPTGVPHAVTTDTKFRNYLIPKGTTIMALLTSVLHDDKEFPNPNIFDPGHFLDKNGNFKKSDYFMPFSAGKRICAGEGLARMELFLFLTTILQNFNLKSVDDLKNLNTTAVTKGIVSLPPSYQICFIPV
Description: as §3

HbA = molecular target: T4, HbA (Homo sapiens, UniProt P68871+P69905); assay: Time-dependent Hb oxygen equilibrium study in normal whole blood; type: cell-based; details: 2 mM, 20% hematocrit, at 3 hours
T4 construct: time-dependent P50-shift of HbA in normal blood (20% hematocrit); endogenous in cells; host or cells: red blood cells in normal whole blood of adult donors (hematocrit 20%)
Description: The time-dependent effect of the MMA compounds and positive control 5-HMF on Hb oxygen affinity was studied using normal blood following previous procedure.^[15] Briefly, normal blood samples (hematocrit 20%) were incubated with the compounds at 37° C. for 24 h. Aliquots were taken at various time points and incubated in IL 237 tonometers (Instrumentation Laboratories, Inc. Lexington, Mass.) for 10 minutes at 37° C., and allowed to equilibrate at oxygen tensions 6, 20, and 40 mmHg. The samples were then aspirated into an ABL 700 Automated Blood Gas Analyzer (Radiometer) to determine the pH, partial pressure of CO2 (pCO2), partial pressure of oxygen (pO2), and Hb oxygen saturation values (SO2). The measured values of pO2 (mmHg) and SO2 at each pO2 value were then subjected to a non-linear regression analysis using the program Scientist (Micromath, Salt Lake City, Utah) to estimate P50 as previously reported.^[28]
5-HMF has a short half-life and poor oral bioavailability due to this metabolic instability, which in part prevented its development for chronic use. Nonetheless, this metabolic instability could be advantageous for parenteral formulation for acute use. […] Briefly, blood samples (hematocrit 20%) were incubated with the compounds at 37° C. for 24 h, and aliquots were taken at the various time points and used to determine the PO2 and SO2 using ABL 800 Automated Blood Gas Analyzer (Radiometer), and to estimate P50 as previously reported.^[10]
The study confirmed the trend in the biological potencies observed with SS blood.

Hb [1] = molecular target: T5, Hb (Homo sapiens, UniProt P68871+P69905, E7V); assay: Hb adduct formation (Hb modification) by cation-exchange HPLC, SS blood lysates; type: binding; details: SS RBCs
T5 construct: Using homozygous sickle (SS) blood from patients; endogenous in cells; host or cells: red blood cells of homozygous SS patient blood (hematocrit 20%); clarified lysates measured after incubation
Source text: as §1
The Hb adduct formation study also used clarified lysates that were subjected to a cation-exchange HPLC (Hitachi D-7000 Series, Hitachi Instruments, Inc., San Jose, Calif.), and a weak cation-exchange column (Poly CAT A: 30 mm×4.6 mm, Poly LC, Inc., Columbia, Md.).
as §2

Hb [2] = molecular target: T5, Hb; assay: Oxygen equilibrium study (P50 shift) of lysates from SS blood, Hemox Analyzer; type: cell-based; details: SS RBCs
Description: as §1
For the oxygen equilibrium study, about 100 μL aliquot of clarified lysate of residual samples from the above antisickling study was added to 4 mL of 0.1 M potassium phosphate buffer, pH 7.0, in cuvettes and subjected to hemoximetry analysis using Hemox™ Analyzer (TCS Scientific Corp., New Hope, Pa.) to assess P50 shift, which is the partial pressure of oxygen (PO2) at which 50% of Hb is saturated with oxygen (SO2). Degree of Hb O2 affinity shift (ΔP50) was expressed as percentage fractions of control DMSO-treated samples.
as §2

[3] = tested on: human cytochrome P450 (CYP) enzymes; assay: In vitro CYP inhibition, panel of seven enzymes (overall statement); type: in vitro ADME; details: 0.1 to 100 μM; pooled human liver microsomes
Description: as §3

`O=Cc1ccc(CO)o1` [Compound 5-HMF, 5-hydroxymethylfurfural, reference compound] was tested, and the “% Sickling inhibition” value (SS RBCs; SS blood hematocrit 20%, 2.5% O2, 37° C.) was 21.4 ± 0.0%, the inhibition at 2000 µM (SS RBCs; Homo sapiens, SS blood hematocrit 20%, 2.5% O2, 37° C., read-out: % Sickling inhibition) was 21% and the pIC50 (CYP2B6) was under 4.00. It also gave a pIC50 (CYP3A4) of under 4.00, a pIC50 (CYP3A4; human, microsomes, pH 7.4) of under 4.00 and a pIC50 (CYP2C9) of under 4.00. It also gave a pIC50 (CYP2D6) of under 4.00, a pIC50 (CYP2C19) of under 4.00 and a pIC50 (CYP1A2) of under 4.00. For the same compound, the pIC50 (CYP2C8) was under 4.00, the “%P50 shift” value (HbA) was 35% and the “% Hb-modification (adduct formation)” value (Hb [1]; 2 mM) was 33%. The “% Hb-modification (adduct formation)” value (Hb [1]; 2 mM, listed as 5HMF) was 33.8 ± 11.7%, the “% Hb-O2 affinity (P50 shift vs DMSO control)” value (Hb [2]; 2 mM) was 27% and the “% Hb-O2 affinity (P50 shift vs DMSO control)” value (Hb [2]; 2 mM, listed as 5HMF) was 27.2 ± 4.9%. For the same compound, the “inhibition of liver CYP isozymes” value [3] was “no inhibition”.

For `O=Cc1ccc(C(F)F)o1` [MMA-502, 5-(difluoromethyl)furan-2-carbaldehyde], the “antisickling activity relative to 5-HMF” value (SS RBCs; over 5-HMF) was about 2.5 fold, the “% Hb-modification (adduct formation)” value (Hb [1]; 0.5 mM) was 9.6 ± 0.0% and the “% Hb-modification (adduct formation)” value (Hb [1]; 1 mM) was 20.4 ± 6.6%. For the same compound, the “% Hb-modification (adduct formation)” value (Hb [1]; 2 mM, listed as 502) was 42.4 ± 10.9%, the “% Hb-modification (adduct formation)” value (Hb [1]; 2 mM, listed as MMA502) was 42% and the “% Hb-O2 affinity (P50 shift vs DMSO control)” value (Hb [2]; 0.5 mM) was 14.2 ± 3.4%. The “% Hb-O2 affinity (P50 shift vs DMSO control)” value (Hb [2]; 1 mM) was 8.8 ± 0.5%, the “% Hb-O2 affinity (P50 shift vs DMSO control)” value (Hb [2]; 2 mM, listed as 502) was 31.5 ± 12.7% and the “% Hb-O2 affinity (P50 shift vs DMSO control)” value (Hb [2]; 2 mM, listed as MMA502) was 32%.

For `O=Cc1ccc(-c2ccn[nH]2)o1` [MMA-503, 5-(1H-pyrazol-5-yl)furan-2-carbaldehyde], the “% Hb-modification (adduct formation)” value (Hb [1]; 0.5 mM) was 4.8 ± 2.1%, the “% Hb-modification (adduct formation)” value (Hb [1]; 1 mM) was 18.0 ± 7.9% and the “% Hb-modification (adduct formation)” value (Hb [1]; 2 mM, listed as 503) was 34.6 ± 7.1%. For the same compound, the “% Hb-modification (adduct formation)” value (Hb [1]; 2 mM, listed as MMA503) was 35%, the “% Hb-O2 affinity (P50 shift vs DMSO control)” value (Hb [2]; 0.5 mM) was 8.0 ± 1.1% and the “% Hb-O2 affinity (P50 shift vs DMSO control)” value (Hb [2]; 1 mM) was 20.0 ± 2.5%. The “% Hb-O2 affinity (P50 shift vs DMSO control)” value (Hb [2]; 2 mM, listed as 503) was 37.1 ± 2.5% and the “% Hb-O2 affinity (P50 shift vs DMSO control)” value (Hb [2]; 2 mM, listed as MMA503) was 37%.
